Measured values published in US5372944A, “Method for conversion of halogenated hydrocarbons to halohydrins” (The Dow Chemical Company, priority 1993, dated 1994).

Legend:
[1] = system: dehalogenase in cell free extracts of Rhodococcus Rhodochrous, TDTM-003; test: Primary screen of dehalogenase activity in cell free extracts of TDTM-003; type: biochemical
Protocol: Following overnight growth, 50 μl of 1-chlorobutane was added to induce the dehalogenase. After 24 hours induction, cells were harvested by centrifugation, resuspended in cold 10mM Tris sulfate/1 mM disodium EDTA, pH=7.5, and disrupted by sonication. Cell debris was removed by centrifugation at 10,000 rpm for 30 minutes, cell free extracts dialyzed overnight against the same buffer, and assayed without dilution for dehalogenase activity.
Free chloride or bromide was assayed qualitatively using a chloride electrode (Orion), or quantitatively using the colorimetric method (430 nm) described by J. G. Bergmann, et al., Anal. Chem., 29:241-243 (1957).
(§1) Hydrolytic dehalogenase enzyme activity was evaluated by adding an appropriate amount of cell free extract or enzyme preparation to 5.0 mL of 100 mM glycine buffer, pH=9.0 in a 7 mL glass vial. The halogenated substrate (5.0 μl) and a small stir bar were added, and the vial capped. Reaction was initiated by transfer to a 30° C. water bath equipped with a magnetic stirrer. Periodically 1.0 mL samples were removed and assayed for free halide. Rates were determined after correcting for non-enzymatic hydrolysis with an appropriate blank. A standard curve was prepared using sodium chloride.
Preliminary studies were performed on cell free extracts of TDTM-003 to evaluate the enzyme substrate selectivity, and the results of this study are shown in Table 2.

[2] = target: partially purified TDTM-003 dehalogenase (Rhodococcus sp. TDTM0003, UniProt P59336); test: Substrate profile of partially purified TDTM-003 dehalogenase; type: biochemical, Rhodococcus species TDTM-003; settings: corrected for non-enzymatic hydrolysis
Chain of partially purified TDTM-003 dehalogenase (P59336 whole entry): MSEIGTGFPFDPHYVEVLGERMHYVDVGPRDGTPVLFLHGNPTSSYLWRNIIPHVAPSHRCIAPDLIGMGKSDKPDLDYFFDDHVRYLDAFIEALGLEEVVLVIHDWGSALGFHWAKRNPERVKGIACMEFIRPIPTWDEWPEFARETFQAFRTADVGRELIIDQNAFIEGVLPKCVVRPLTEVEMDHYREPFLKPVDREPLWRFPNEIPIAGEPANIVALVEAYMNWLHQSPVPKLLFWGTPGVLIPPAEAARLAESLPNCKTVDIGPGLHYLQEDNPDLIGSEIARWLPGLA
Protocol: as §1
Frozen pellets from 2 liters of culture were thawed into 150 mL of 10 mM Tris sulfate buffer, pH=7.5 containing 1 mM disodium EDTA. This buffer was used throughout the entire purification. The suspension was sonicated for approximately 1 hour with ice cooling using a Microson Ultrasonic Cell Disrupter and centrifuged at 10,000 rpm for 15 minutes to remove cell debris. Supernatant was removed and the sonication/centrifugation repeated with fresh buffer to increase enzyme yield. Overall sonication efficiency was monitored by absorbence at 280 nm. Cell free extracts were combined and brought slowly to 30 percent saturation with solid ammonium sulfate. The suspension was centrifuged at 10,000 rpm for 30 minutes and the pellet discarded. The supernatant was brought to 70 percent saturation with solid ammonium sulfate and centrifugation repeated. Supernatant was discarded and the pellet taken up in a small volume of buffer and dialyzed overnight against 1 liter of the same. The preparation was applied to a 1.5×15cm column of DEAE-Sephadex equilibrated with the same buffer elution carried out with a 1 liter gradient from 0 to 400 mM ammonium sulfate. Fractions of about 7-8 mLs were collected. The active fractions were pooled and brought to 90 percent saturation with ammonium sulfate. The pellet was taken up in a minimal amount of buffer, ultrafiltered to 2.5 mL using 10,000 MWCO Novacell Ultrafiltration cell, and applied to a 1.5×90 cm Sephadex G-100 column. Elution was by gravity at 90 cm and fractions of 7-8 mLs were collected. Active fractions were poled, brought to 30 percent saturation with ammonium sulfate, and applied to a 10 ml column of Butyl-agarose equilibrated in the same. Elution was performed with a 500 mL gradient from 30 percent-0 percent ammonium sulfate. Active fractions were pooled, dialyzed and used for substrate selectivity studies.
To evaluate the substrate selectivity of haloalkane dehalogenase from isolated Rhodococcus species, an enzyme preparation from the strain designated TDTM-003 was purified by the procedure described under General Experimental. This preparation provided a dehalogenase which was approximately 50 percent pure as estimated by SDS-PAGE and was free of interfering halohydrin dehalogenase activity.
The activity of this partially purified TDTM-003 dehalogenase preparation was evaluated against various chlorinated and brominated substrates. Each enzymatic rate was corrected for non-enzymatic hydroloysis.

[3] = system: double mutants lacking both ADH and halohydrin dehalogenase activity; test: Whole cell conversion of DCP, DCB and TCP by double mutants: kinetics, selectivity, enantioselectivity; type: cell-based, Rhodococcus species; settings: double mutants grown on succinate, induced with 1-chlorobutane
Protocol: To evaluate kinetics and selectivity of various mutants with respect to conversion of the target halocarbons, 1,2-dichloropropane (DCP), 1,2-dichloro-butane (DCB) and 1,2,3-trichloropropane (TCP) cultures were first inoculated from slants into 25 mL nutrient media in a 125 mL flask and grown overnight. Five mL were inoculated into 50 mL of MM1X4P containing 5 g/L disodium succinate in a 250 mL flask. Following 4 hours of growth and again at 8 hours, 10 μl of 1-chlorobutane was added for induction of the dehalogenase. Following 24 hours growth, cells were harvested by centrifugation and resuspended into 50 mL of fresh sterile MM1X4P and transferred to a sterile 250 mL shake flask equipped with a bulb feeder as described by Gibson, et al., supra. DCP, DCB, and TCP were added to bulb feeders and reaction progress monitored by gas chromatography (GC). Throughout the protocol, volumes were modified as needed to provide higher concentrations of cells and/or to provide identical batches of induced cells for comparative studies.
(§2) For gas chromatography (GC) analysis of halogenated metabolites, cultures were centrifuged briefly to remove cells, saturated with sodium sulfate, and an equivalent volume of methylene chloride added. The suspension was vortexed vigorously, centrifuged to break the emulsion and the methylene chloride phase removed.
(§3) Analysis of all halocarbon substrates and products from culture broths was done by GC using a Hewlett Packard 5710 equipped with a 7671A Autoinjector with the following protocol:
Analysis for optical activity of microbially produced 2,3-dichloro-1-propanol was determined independently using two methods. […] Enantiomeric composition of DCP, DCB, and respective halohydrins can also be monitored using a derivatized cyclodexdrin gas chromatography column (CHIRALDEX™ type B-TA Column, Advanced Separation Technologies, Inc.). Enantiomeric excess was determined by a comparison of peak areas.
The double mutants were evaluated for conversion of DCP, DCB, and TCP following growth on succinate in the presence of 1-chlorobutane as an inducer of the dehalogenase. […]

[4] = system: TDTM-003-60-2-11; test: Dehalogenation by double mutant strain TDTM-003-60-2-11 in shake flask with bulb feeder; type: cell-based, Rhodococcus sp.; settings: 28° C., 150 rpm, substrate from bulb feeder
Text: as §2, §3
Dehalogenation of 1,2-dichloropropane by the double mutant strain of Rhodococcus sp., designated TDTM-003-60-2-11 was assayed in the following manner: 5 mL of an overnight culture (16 hours) were used as inoculum for 50 mL MM1X4P containing 5 g/L disodium succinate in a 250 mL flask. At 4 and 8 hours growth, 10 μL of 1-chlorobutane was added to induce the dehalogenase enzyme. Following 24 hours of growth, cells were harvested by centrifugation, resuspended into 50 mL of fresh MM1X4P, and transferred to a sterile 250 mL shake flask equipped with a bulb feeder. To the bulb feeder was added 1,2-dichloropropane and incubation continued at 28° C. and 150 rpm. […] The production of halohydrin products was monitored by gas chromatography. 1 -Chloro-2-propanol and 2-chloro-1-propanol accumulate linearly in the culture broth to 74 parts-per-million (ppm) (w/v) and 20 ppm (w/v) respectively after 120 hours. The overall rate of halohydrin production is 0.60 mg/g dry cells/hr.
The procedure described in Example 6 was followed except 1,2-dichlorobutanereplaced 1-chlorobutane in the bulb feeder.
The procedure described in Example 6 was followed except 1,2,3-trichloropropane replaced 1-chlorobutane in the bulb feeder.

[5] = system: TDTM-003; test: Utilization of carbon containing compounds for growth in liquid culture, TDTM-003; type: cell-based, Rhodococcus species; settings: strain TDTM-003, liquid culture

Compound | Relative Rate of Chloride Release, 1-chlorobutane = 100 [1] | Relative Rate of Halogen Release, 1-Chlorobutane = 100 [2] | in vivo rates of conversion [3] [mg product/g dry cells/hr] | overall rate of halohydrin production [4] [mg/g dry cells/hr] | utilization as a sole source of carbon [5]
ClCC(Cl)CCl [1,2,3-trichloropropane] | 23 | 18.000 | 1.06 | 2.39 | 
CCC(Cl)CCl (stereo not shown) [1,2-dichlorobutane] | 108 | 33.000 | 1.29 | 2.47 | 
CC(Cl)CCl (stereo not shown) [1,2-dichloropropane] | 4.2 | 5.800 | 0.30 | 0.60 | does not utilize
